Key:
Experiment in all cases: Kinase profiling
Format in all cases: biochemical
[1] = target: T1, BTK (Homo sapiens, UniProt Q06187)
T1 construct: purchased ProQinase (Freiburg, Germany)
Procedure: (§1) The analysis was performed by ProQinase (Freiburg, Germany).

[2] = target: T2, CK1gamma1 (Homo sapiens, UniProt Q9HCP0)
T2 construct: purchased ProQinase (Freiburg, Germany)
Procedure: as §1

[3] = target: T3, DYRK4 (Homo sapiens, UniProt Q9NR20)
T3 construct: purchased ProQinase (Freiburg, Germany)
T3 sequence (Q9NR20 1-520): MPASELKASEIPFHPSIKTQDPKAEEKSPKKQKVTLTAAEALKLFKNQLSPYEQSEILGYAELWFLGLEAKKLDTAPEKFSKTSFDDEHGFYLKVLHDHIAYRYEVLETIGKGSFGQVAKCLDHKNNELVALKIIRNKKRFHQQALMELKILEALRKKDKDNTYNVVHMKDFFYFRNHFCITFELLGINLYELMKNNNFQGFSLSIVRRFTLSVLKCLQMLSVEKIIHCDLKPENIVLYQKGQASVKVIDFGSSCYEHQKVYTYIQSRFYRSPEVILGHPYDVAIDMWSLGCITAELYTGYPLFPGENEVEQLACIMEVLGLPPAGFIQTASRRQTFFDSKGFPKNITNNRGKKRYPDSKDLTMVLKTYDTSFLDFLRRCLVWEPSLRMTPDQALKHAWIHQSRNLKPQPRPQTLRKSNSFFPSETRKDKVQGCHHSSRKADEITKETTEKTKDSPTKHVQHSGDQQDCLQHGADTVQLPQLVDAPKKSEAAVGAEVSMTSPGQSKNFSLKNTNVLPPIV
Procedure: as §1

[4] = target: T4, FLT3 (Homo sapiens, UniProt P36888)
T4 construct: purchased ProQinase (Freiburg, Germany)
T4 sequence (P36888 27-993): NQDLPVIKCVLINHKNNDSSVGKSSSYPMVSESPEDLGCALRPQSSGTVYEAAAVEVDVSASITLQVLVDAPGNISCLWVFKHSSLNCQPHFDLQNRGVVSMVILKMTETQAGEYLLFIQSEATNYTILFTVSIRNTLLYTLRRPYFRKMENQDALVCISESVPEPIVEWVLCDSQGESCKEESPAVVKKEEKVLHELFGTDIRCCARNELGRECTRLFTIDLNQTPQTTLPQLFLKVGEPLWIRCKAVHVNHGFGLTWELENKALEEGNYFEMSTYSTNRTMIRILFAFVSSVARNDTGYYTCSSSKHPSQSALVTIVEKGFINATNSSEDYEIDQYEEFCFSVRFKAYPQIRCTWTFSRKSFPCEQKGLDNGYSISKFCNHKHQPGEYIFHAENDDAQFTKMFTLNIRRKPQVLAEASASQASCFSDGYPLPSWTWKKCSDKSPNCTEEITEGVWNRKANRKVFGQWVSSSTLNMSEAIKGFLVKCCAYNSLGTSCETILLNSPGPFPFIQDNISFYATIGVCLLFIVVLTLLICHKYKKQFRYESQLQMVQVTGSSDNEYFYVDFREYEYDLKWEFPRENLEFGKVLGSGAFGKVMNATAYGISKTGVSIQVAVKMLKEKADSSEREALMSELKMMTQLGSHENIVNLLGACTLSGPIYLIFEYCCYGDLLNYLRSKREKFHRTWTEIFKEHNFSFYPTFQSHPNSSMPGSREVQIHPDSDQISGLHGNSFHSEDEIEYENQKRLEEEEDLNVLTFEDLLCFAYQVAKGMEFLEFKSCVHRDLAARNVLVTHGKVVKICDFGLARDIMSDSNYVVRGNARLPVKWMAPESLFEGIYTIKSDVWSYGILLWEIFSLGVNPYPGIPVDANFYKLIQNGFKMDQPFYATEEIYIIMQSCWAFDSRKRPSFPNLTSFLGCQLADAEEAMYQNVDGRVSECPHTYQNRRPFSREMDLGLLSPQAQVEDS
Procedure: as §1

[5] = target: T5, FRK (Homo sapiens, UniProt P42685)
T5 construct: purchased ProQinase (Freiburg, Germany)
Procedure: as §1

[6] = target: T6, LIMK2 (Homo sapiens, UniProt P53671)
T6 construct: purchased ProQinase (Freiburg, Germany)
Procedure: as §1

[7] = target: T7, PKCepsilon (Homo sapiens, UniProt Q02156)
T7 construct: purchased ProQinase (Freiburg, Germany)
T7 sequence (Q02156 1-737): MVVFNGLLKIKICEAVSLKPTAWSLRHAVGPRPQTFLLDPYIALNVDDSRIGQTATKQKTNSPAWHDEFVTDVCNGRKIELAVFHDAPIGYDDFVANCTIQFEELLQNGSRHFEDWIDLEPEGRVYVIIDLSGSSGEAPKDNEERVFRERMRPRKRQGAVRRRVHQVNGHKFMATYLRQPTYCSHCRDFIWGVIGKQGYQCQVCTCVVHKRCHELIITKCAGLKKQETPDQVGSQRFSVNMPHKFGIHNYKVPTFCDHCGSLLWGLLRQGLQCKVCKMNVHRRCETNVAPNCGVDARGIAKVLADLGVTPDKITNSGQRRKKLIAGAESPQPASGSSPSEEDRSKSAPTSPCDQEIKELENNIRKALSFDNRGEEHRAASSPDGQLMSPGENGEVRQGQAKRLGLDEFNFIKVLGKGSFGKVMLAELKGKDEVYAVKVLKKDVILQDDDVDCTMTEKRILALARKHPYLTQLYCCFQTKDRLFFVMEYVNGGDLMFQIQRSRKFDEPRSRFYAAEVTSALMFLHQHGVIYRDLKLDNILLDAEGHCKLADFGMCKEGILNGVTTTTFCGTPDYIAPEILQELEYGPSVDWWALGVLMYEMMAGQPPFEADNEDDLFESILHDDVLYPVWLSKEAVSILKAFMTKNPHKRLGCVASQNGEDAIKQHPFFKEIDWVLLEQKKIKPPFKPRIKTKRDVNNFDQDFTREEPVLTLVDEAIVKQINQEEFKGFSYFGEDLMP
Procedure: as §1

[8] = target: T8, RAF1 YDYD (Homo sapiens, UniProt P04049, Y340D/Y341D)
T8 construct: purchased ProQinase (Freiburg, Germany)
Procedure: as §1

[9] = target: T9, SIK2 (Homo sapiens, UniProt Q9H0K1)
T9 construct: purchased ProQinase (Freiburg, Germany)
Procedure: as §1

[10] = target: T10, TRKA (Homo sapiens, UniProt P04629)
T10 construct: purchased ProQinase (Freiburg, Germany)
Procedure: as §1

[11] = target: T11, TRKB (Homo sapiens, UniProt Q16620)
T11 construct: purchased ProQinase (Freiburg, Germany)
Procedure: as §1

T10 sequence (P04629 33-796): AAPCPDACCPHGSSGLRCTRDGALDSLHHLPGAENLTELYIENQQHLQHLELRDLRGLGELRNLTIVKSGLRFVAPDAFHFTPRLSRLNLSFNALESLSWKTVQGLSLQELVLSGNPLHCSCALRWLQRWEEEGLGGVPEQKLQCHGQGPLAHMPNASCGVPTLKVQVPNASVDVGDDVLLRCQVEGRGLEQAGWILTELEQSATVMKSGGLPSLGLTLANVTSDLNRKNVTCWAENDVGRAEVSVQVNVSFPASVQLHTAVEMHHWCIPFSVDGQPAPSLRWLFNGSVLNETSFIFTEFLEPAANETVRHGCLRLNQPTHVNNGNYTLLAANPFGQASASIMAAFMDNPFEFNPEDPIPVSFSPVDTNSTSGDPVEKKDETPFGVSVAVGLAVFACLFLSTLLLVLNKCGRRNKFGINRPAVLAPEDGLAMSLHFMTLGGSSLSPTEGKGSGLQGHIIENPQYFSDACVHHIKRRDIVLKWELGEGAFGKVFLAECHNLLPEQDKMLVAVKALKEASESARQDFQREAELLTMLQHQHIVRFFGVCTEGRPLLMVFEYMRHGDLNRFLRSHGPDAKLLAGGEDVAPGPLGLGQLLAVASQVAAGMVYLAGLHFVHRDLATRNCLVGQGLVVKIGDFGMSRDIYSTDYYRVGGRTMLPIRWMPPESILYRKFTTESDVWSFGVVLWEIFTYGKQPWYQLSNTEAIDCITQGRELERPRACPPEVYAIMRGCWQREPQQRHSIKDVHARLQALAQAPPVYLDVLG
T1 sequence (Q06187 whole entry): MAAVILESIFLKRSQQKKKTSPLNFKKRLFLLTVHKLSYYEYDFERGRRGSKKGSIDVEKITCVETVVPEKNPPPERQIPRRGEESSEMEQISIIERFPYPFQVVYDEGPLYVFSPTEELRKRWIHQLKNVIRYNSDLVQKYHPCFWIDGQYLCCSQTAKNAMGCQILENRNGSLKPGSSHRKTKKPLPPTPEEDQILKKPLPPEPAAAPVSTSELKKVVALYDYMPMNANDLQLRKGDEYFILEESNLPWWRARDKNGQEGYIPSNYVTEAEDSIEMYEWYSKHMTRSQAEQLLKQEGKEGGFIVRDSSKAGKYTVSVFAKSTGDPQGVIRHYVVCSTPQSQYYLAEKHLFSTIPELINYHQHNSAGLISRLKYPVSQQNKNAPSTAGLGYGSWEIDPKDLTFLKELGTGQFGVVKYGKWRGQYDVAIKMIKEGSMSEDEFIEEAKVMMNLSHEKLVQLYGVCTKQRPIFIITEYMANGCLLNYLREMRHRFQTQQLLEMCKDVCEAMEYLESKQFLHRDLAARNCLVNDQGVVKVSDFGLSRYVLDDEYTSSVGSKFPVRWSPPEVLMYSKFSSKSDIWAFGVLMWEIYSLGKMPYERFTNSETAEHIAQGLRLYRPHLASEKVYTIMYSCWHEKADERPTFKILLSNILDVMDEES
T5 sequence (P42685 whole entry): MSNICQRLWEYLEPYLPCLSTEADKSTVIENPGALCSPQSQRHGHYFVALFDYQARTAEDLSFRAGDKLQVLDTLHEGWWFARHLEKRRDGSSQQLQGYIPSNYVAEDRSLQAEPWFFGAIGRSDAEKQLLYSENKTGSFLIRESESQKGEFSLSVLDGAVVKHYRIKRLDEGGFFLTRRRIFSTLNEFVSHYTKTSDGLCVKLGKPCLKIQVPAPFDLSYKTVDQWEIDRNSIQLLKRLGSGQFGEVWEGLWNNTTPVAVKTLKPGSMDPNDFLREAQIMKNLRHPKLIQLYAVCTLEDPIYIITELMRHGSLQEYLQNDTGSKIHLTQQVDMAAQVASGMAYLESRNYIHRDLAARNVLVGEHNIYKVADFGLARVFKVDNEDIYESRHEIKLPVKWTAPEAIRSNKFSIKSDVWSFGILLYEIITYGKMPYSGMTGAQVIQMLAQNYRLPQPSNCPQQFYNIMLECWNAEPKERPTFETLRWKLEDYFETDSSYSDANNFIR
T2 sequence (Q9HCP0 whole entry): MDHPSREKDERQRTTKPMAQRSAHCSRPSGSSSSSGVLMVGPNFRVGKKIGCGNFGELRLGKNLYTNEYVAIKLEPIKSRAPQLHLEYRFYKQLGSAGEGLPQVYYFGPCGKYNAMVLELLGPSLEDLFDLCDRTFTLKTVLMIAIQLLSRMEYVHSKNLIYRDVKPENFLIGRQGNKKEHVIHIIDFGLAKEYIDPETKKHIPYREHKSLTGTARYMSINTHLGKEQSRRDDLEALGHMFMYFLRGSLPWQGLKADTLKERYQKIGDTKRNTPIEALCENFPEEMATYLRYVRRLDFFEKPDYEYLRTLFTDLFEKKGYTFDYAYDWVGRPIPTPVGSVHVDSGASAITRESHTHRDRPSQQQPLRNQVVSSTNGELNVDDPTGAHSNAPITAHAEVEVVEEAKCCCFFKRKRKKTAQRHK
T9 sequence (Q9H0K1 whole entry): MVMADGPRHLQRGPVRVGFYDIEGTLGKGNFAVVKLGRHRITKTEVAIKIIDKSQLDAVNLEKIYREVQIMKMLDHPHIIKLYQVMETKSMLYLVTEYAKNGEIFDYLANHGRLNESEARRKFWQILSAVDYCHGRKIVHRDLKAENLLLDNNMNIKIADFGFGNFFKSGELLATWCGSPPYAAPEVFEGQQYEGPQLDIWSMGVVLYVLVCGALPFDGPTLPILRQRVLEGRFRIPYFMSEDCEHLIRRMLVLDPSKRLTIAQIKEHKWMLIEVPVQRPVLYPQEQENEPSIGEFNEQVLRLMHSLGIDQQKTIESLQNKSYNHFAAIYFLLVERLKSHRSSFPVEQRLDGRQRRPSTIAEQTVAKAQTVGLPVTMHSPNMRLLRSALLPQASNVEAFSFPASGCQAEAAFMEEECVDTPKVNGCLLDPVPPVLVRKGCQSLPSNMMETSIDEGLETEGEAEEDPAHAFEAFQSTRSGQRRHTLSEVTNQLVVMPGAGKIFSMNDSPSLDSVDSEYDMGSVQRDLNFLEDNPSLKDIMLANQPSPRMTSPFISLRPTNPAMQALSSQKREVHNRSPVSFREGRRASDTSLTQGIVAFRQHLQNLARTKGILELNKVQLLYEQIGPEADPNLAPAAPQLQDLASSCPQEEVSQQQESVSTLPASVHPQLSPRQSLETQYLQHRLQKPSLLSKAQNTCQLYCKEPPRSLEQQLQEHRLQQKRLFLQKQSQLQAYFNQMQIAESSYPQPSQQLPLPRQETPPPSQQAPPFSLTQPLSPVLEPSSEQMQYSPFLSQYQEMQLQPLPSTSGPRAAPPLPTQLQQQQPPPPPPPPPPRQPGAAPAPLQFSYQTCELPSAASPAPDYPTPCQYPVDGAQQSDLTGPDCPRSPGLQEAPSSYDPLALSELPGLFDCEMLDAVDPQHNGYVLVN
T11 sequence (Q16620 32-822): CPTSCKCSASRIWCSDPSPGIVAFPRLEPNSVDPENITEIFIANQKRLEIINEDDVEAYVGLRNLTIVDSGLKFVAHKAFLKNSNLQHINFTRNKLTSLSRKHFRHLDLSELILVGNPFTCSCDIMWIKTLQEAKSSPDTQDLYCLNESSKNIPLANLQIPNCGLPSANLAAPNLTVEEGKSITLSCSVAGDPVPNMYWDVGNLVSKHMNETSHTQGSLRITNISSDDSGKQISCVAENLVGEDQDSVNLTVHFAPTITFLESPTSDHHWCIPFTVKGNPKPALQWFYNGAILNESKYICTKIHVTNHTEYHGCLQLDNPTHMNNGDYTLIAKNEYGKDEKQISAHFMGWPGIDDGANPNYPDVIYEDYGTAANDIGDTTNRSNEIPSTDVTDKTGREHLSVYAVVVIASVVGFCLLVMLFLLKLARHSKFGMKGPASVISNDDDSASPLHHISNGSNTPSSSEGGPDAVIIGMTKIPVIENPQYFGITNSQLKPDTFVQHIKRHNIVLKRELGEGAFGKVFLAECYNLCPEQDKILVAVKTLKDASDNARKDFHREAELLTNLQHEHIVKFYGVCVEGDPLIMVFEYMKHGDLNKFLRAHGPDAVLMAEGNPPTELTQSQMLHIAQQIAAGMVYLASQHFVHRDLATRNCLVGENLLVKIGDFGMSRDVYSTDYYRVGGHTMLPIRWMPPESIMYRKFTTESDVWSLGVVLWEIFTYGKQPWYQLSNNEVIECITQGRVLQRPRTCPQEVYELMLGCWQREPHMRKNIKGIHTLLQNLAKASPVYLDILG
T6 sequence (P53671 whole entry): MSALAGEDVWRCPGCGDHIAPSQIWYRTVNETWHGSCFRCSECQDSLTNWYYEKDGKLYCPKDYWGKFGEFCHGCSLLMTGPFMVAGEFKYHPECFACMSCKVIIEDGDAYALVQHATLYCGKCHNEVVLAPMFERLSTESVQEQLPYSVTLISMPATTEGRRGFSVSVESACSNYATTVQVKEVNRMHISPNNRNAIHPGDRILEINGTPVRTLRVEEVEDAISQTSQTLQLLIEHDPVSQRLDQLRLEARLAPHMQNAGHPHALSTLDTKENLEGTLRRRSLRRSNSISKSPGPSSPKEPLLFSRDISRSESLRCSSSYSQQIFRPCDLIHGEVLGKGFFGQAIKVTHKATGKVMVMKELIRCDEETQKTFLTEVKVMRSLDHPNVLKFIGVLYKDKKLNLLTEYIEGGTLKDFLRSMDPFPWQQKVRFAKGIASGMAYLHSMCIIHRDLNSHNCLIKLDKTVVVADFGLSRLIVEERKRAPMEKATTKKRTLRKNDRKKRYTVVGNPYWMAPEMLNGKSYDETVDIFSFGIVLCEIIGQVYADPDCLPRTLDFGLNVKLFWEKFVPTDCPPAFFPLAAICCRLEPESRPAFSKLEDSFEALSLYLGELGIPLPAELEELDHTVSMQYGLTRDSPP

With O=C(Cc1ccccc1)Nc1ccc(F)c(Nc2ccc3c(c2)CCCCC3=O)c1 [Compound 100] the Residual activity ([1]; 1.0E-05 M) was 78 % of control, the Residual activity ([1]; 1.0E-06 M) was 99 % of control and the Residual activity ([2]; 1.0E-05 M) was 115 % of control. The Residual activity ([2]; 1.0E-06 M) was 111 % of control, the Residual activity ([3]; 1.0E-05 M) was 94 % of control and the Residual activity ([3]; 1.0E-06 M) was 98 % of control. For the same compound, the Residual activity ([4]; 1.0E-05 M) was 94 % of control, the Residual activity ([4]; 1.0E-06 M) was 101 % of control and the Residual activity ([5]; 1.0E-05 M) was 104 % of control. The Residual activity ([5]; 1.0E-06 M) was 107 % of control, the Residual activity ([6]; 1.0E-05 M) was 82 % of control and the Residual activity ([6]; 1.0E-06 M) was 95 % of control. For the same compound, the Residual activity ([7]; 1.0E-05 M) was 107 % of control, the Residual activity ([7]; 1.0E-06 M) was 107 % of control and the “inhibition of RAF1” value ([8]; 1 µM) was “inhibited considerably”. The inhibition at 10 µM [8] was no less than 50%, the Residual activity ([8]; 1.0E-05 M) was 3 % of control and the Residual activity ([8]; 1.0E-06 M) was 14 % of control. For the same compound, the Residual activity ([9]; 1.0E-05 M) was 81 % of control, the Residual activity ([9]; 1.0E-06 M) was 89 % of control and the Residual activity ([10]; 1.0E-05 M) was 94 % of control. The Residual activity ([10]; 1.0E-06 M) was 107 % of control, the Residual activity ([11]; 1.0E-05 M) was 74 % of control and the Residual activity ([11]; 1.0E-06 M) was 105 % of control.
In the case of O=C(Nc1ccc(F)c(Nc2ccc3c(c2)CCCCC3=O)c1)c1cccc(F)c1 [Compound 109], the Residual activity ([1]; 1.0E-05 M) is reported as 91 % of control, the Residual activity ([1]; 1.0E-06 M) is reported as 99 % of control and the Residual activity ([2]; 1.0E-05 M) is reported as 57 % of control. For the same compound, the Residual activity ([2]; 1.0E-06 M) was 86 % of control, the Residual activity ([3]; 1.0E-05 M) was 87 % of control and the Residual activity ([3]; 1.0E-06 M) was 89 % of control. The Residual activity ([4]; 1.0E-05 M) was 91 % of control, the Residual activity ([4]; 1.0E-06 M) was 98 % of control and the Residual activity ([5]; 1.0E-05 M) was 102 % of control. The Residual activity ([5]; 1.0E-06 M) was 107 % of control, the Residual activity ([6]; 1.0E-05 M) was 93 % of control and the Residual activity ([6]; 1.0E-06 M) was 98 % of control. For the same compound, the Residual activity ([7]; 1.0E-05 M) was 103 % of control, the Residual activity ([7]; 1.0E-06 M) was 104 % of control and the inhibition at 1 µM ([8]; 1 µM) was no less than 50%. The inhibition at 10 µM [8] was no less than 50%, the Residual activity ([8]; 1.0E-05 M) was 12 % of control and the Residual activity ([8]; 1.0E-06 M) was 36 % of control. The Residual activity ([9]; 1.0E-05 M) was 82 % of control, the Residual activity ([9]; 1.0E-06 M) was 93 % of control and the Residual activity ([10]; 1.0E-05 M) was 97 % of control. The Residual activity ([10]; 1.0E-06 M) was 101 % of control, the Residual activity ([11]; 1.0E-05 M) was 92 % of control and the Residual activity ([11]; 1.0E-06 M) was 101 % of control.
